Data from ChEMBL document CHEMBL4507278 (2021).

Assays:
[1] = biological target: G protein-coupled receptor kinase 4 (Homo sapiens) (UniProt P32298); conditions: Compound concentration 1000.0 nM
[2] = biological target: Muscle, skeletal receptor tyrosine-protein kinase (Homo sapiens) (UniProt O15146); conditions: Compound concentration 1000.0 nM
[3] = biological target: Ribosomal protein S6 kinase alpha-1 (Homo sapiens) (UniProt Q15418); conditions: Compound concentration 1000.0 nM
[4] = biological target: Calcium/calmodulin-dependent protein kinase type 1G (Homo sapiens) (UniProt Q96NX5); conditions: Compound concentration 1000.0 nM
[5] = biological target: Bone morphogenetic protein receptor type-2 (Homo sapiens) (UniProt Q13873); conditions: Compound concentration 1000.0 nM
[6] = biological target: MAP/microtubule affinity-regulating kinase 4 (Homo sapiens) (UniProt Q96L34); conditions: Compound concentration 1000.0 nM
Chain of MAP/microtubule affinity-regulating kinase 4 (Homo sapiens) (Q96L34 whole entry): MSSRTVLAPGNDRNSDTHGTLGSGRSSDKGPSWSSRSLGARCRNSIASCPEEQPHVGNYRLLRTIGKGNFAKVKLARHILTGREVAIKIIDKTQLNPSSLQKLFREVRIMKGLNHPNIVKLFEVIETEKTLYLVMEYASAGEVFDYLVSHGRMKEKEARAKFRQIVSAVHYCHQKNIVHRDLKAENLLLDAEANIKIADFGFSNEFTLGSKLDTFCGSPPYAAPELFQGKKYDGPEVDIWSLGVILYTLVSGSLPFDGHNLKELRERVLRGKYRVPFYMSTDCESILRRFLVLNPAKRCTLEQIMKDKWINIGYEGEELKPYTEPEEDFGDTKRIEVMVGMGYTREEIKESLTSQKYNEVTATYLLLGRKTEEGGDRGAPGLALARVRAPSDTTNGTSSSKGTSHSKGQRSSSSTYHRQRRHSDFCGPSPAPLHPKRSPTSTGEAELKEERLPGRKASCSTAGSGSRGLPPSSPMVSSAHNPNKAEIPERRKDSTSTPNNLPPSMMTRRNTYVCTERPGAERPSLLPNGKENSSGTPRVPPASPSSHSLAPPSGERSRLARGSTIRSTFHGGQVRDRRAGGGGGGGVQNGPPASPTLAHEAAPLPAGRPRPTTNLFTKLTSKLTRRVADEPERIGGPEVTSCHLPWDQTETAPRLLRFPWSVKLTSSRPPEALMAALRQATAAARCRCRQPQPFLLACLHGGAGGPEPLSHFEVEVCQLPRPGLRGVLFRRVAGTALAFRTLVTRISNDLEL

[7] = biological target: Tyrosine-protein kinase Lyn (Homo sapiens) (UniProt P07948); conditions: Compound concentration 1000.0 nM
Chain of Tyrosine-protein kinase Lyn (Homo sapiens) (P07948 2-512 limits assumed): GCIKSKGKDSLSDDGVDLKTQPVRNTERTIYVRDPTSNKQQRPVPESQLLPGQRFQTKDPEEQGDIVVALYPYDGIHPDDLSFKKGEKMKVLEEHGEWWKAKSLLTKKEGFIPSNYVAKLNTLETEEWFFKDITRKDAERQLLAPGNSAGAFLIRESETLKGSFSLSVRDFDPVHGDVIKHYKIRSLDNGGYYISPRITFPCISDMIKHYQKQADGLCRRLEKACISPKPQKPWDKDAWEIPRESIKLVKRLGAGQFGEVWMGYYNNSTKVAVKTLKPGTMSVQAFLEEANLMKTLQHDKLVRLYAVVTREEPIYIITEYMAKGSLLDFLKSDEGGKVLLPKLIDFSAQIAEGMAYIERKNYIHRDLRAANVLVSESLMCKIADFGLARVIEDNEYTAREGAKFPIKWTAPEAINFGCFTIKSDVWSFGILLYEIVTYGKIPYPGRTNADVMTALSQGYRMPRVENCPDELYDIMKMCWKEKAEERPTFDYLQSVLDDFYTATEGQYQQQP

[8] = tested on: Phosphatidylinositol 4,5-bisphosphate 3-kinase catalytic subunit alpha isoform (Homo sapiens), P42336 [H1047Y]; conditions: Compound concentration 1000.0 nM
[9] = biological target: Histamine H2 receptor (Homo sapiens) (UniProt P25021); conditions: Compound concentration 10.0 uM
[10] = biological target: Serine/threonine-protein kinase STK11 (Homo sapiens) (UniProt Q15831); conditions: Compound concentration 1000.0 nM
[11] = biological target: Tyrosine-protein kinase receptor UFO (Homo sapiens) (UniProt P30530); conditions: Compound concentration 1000.0 nM
[12] = biological target: Mitogen-activated protein kinase kinase kinase 15 (Homo sapiens) (UniProt Q6ZN16); conditions: Compound concentration 1000.0 nM
[13] = biological target: Tyrosine-protein kinase receptor Tie-1 (Homo sapiens) (UniProt P35590); conditions: Compound concentration 1000.0 nM
[14] = biological target: Calcium/calmodulin-dependent protein kinase type II subunit beta (Homo sapiens) (UniProt Q13554); conditions: Compound concentration 1000.0 nM
[15] = biological target: Mitotic checkpoint serine/threonine-protein kinase BUB1 (Homo sapiens) (UniProt O43683); conditions: Compound concentration 1000.0 nM
[16] = biological target: MAP kinase-activated protein kinase 5 (Homo sapiens) (UniProt Q8IW41); conditions: Compound concentration 1000.0 nM
[17] = biological target: Receptor tyrosine-protein kinase erbB-4 (Homo sapiens) (UniProt Q15303); conditions: Compound concentration 1000.0 nM
[18] = biological target: Proto-oncogene tyrosine-protein kinase receptor Ret (Homo sapiens) (UniProt P07949); conditions: Compound concentration 1000.0 nM
[19] = biological target: Ribosomal protein S6 kinase alpha-4 (Homo sapiens) (UniProt O75676); conditions: Compound concentration 1000.0 nM
[20] = biological target: Calcium/calmodulin-dependent protein kinase type II subunit delta (Homo sapiens) (UniProt Q13557); conditions: Compound concentration 1000.0 nM
[21] = biological target: Ephrin type-B receptor 6 (Homo sapiens) (UniProt O15197); conditions: Compound concentration 1000.0 nM
Chain of Ephrin type-B receptor 6 (Homo sapiens) (O15197 whole entry): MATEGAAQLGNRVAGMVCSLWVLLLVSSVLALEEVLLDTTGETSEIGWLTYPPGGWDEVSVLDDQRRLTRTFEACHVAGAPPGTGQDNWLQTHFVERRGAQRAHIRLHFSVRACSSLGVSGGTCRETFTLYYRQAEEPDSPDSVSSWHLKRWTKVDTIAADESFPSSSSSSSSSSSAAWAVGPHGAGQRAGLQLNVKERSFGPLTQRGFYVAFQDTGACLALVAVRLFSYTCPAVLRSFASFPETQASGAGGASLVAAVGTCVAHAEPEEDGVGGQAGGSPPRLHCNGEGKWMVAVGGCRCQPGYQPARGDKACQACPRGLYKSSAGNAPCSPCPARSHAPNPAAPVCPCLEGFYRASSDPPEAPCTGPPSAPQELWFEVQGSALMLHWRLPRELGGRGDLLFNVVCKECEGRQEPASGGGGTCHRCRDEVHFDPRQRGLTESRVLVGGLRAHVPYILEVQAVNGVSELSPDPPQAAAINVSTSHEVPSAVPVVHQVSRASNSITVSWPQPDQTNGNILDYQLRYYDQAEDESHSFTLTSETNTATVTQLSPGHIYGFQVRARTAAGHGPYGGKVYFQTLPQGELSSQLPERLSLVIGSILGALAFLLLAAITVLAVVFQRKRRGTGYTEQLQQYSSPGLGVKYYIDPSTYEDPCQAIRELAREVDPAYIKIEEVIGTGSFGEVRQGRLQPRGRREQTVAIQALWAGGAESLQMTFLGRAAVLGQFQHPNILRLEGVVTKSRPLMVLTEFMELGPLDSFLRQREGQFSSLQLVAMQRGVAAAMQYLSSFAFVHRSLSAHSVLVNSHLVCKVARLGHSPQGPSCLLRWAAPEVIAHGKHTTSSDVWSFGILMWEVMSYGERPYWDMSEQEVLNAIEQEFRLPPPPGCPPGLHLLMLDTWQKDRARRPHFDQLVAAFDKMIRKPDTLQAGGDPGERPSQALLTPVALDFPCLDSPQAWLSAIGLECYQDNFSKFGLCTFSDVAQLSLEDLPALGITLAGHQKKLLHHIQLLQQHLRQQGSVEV

[22] = biological target: Mitogen-activated protein kinase 4 (Homo sapiens) (UniProt P31152); conditions: Compound concentration 1000.0 nM
[23] = biological target: Citron Rho-interacting kinase (Homo sapiens) (UniProt O14578); conditions: Compound concentration 1000.0 nM
[24] = biological target: Ephrin type-A receptor 8 (Homo sapiens) (UniProt P29322); conditions: Compound concentration 1000.0 nM
Chain of Ephrin type-A receptor 8 (Homo sapiens) (P29322 whole entry): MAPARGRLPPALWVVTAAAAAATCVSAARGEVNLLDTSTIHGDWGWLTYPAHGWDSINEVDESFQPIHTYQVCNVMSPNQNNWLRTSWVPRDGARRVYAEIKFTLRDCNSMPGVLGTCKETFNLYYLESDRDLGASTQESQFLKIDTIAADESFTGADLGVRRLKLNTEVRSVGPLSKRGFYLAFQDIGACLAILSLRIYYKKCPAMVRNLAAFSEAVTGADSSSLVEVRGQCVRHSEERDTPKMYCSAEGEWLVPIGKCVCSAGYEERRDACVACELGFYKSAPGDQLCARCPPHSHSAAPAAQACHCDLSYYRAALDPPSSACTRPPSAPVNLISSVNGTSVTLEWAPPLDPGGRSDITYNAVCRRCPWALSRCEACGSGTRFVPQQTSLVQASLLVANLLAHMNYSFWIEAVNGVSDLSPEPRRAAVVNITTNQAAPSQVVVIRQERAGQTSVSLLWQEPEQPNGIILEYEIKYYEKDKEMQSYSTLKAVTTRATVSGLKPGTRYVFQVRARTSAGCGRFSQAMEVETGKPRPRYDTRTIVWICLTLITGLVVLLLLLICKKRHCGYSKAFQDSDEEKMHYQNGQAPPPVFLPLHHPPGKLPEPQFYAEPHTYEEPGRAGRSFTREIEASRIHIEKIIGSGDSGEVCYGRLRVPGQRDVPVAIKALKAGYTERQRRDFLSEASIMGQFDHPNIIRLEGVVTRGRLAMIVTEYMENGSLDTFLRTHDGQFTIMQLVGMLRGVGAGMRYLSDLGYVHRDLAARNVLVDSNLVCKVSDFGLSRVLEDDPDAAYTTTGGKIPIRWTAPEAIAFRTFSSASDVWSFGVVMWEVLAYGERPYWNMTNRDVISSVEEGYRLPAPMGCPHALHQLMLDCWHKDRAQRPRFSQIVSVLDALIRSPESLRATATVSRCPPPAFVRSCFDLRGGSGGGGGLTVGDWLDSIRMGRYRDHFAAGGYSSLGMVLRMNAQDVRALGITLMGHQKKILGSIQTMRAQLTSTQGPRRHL

[25] = biological target: Serine/threonine-protein kinase 33 (Homo sapiens) (UniProt Q9BYT3); conditions: Compound concentration 1000.0 nM
Chain of Serine/threonine-protein kinase 33 (Homo sapiens) (Q9BYT3 whole entry, looked up): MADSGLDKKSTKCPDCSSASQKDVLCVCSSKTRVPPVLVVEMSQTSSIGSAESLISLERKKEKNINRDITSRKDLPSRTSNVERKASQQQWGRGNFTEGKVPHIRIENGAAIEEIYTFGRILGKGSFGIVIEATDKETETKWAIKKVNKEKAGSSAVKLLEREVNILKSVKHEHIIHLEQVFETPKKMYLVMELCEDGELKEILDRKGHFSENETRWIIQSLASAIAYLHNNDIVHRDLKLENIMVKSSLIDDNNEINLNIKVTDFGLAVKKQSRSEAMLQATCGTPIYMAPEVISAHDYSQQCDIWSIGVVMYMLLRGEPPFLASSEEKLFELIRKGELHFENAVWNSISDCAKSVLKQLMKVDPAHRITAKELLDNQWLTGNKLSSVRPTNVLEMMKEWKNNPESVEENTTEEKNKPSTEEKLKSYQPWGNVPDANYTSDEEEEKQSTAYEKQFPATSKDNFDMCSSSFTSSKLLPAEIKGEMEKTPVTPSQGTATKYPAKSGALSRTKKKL

[26] = biological target: Serine/threonine-protein kinase Nek3 (Homo sapiens) (UniProt P51956); conditions: Compound concentration 1000.0 nM
[27] = biological target: Epithelial discoidin domain-containing receptor 1 (Homo sapiens) (UniProt Q08345); conditions: Compound concentration 1000.0 nM
[28] = biological target: Serine/threonine-protein kinase PAK 1 (Homo sapiens) (UniProt Q13153); conditions: Compound concentration 1000.0 nM
Chain of Serine/threonine-protein kinase PAK 1 (Homo sapiens) (Q13153 whole entry): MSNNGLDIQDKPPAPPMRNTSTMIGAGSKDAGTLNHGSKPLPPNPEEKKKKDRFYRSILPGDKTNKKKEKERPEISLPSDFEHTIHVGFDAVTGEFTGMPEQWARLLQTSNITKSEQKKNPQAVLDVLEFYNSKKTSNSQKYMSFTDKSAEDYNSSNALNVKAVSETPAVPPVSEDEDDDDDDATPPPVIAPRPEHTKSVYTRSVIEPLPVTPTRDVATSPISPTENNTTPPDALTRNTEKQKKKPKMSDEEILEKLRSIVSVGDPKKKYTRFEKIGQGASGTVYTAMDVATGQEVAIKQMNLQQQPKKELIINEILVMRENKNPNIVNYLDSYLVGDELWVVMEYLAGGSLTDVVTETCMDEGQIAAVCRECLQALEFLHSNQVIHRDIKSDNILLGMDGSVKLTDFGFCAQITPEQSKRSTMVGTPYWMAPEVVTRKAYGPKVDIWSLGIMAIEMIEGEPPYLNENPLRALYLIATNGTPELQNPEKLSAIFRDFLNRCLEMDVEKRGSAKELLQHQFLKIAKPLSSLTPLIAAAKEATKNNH

[29] = biological target: Serine/threonine-protein kinase WNK4 (Homo sapiens) (UniProt Q96J92); conditions: Compound concentration 1000.0 nM
[30] = tested on: Tyrosine-protein kinase ABL1 (Homo sapiens), P00519 [F317I]; conditions: Compound concentration 1000.0 nM
[31] = biological target: Protein kinase C iota type (Homo sapiens) (UniProt P41743); conditions: Compound concentration 1000.0 nM
[32] = biological target: Cyclin-dependent kinase 2 (Homo sapiens) (UniProt P24941); conditions: Compound concentration 1000.0 nM
[33] = biological target: Sigma non-opioid intracellular receptor 1 (Homo sapiens) (UniProt Q99720); conditions: Compound concentration 10.0 uM
[34] = biological target: Serine/threonine-protein kinase SIK3 (Homo sapiens) (UniProt Q9Y2K2); conditions: Compound concentration 1000.0 nM
[35] = tested on: Hepatocyte growth factor receptor (Homo sapiens), P08581 [M1250T]; conditions: Compound concentration 1000.0 nM
[36] = biological target: Calcium/calmodulin-dependent protein kinase type 1 (Homo sapiens) (UniProt Q14012); conditions: Compound concentration 1000.0 nM
[37] = biological target: Dual specificity protein kinase TTK (Homo sapiens) (UniProt P33981); conditions: Compound concentration 1000.0 nM
[38] = biological target: Death-associated protein kinase 2 (Homo sapiens) (UniProt Q9UIK4); conditions: Compound concentration 1000.0 nM
[39] = biological target: AP2-associated protein kinase 1 (Homo sapiens) (UniProt Q2M2I8); conditions: Compound concentration 1000.0 nM
[40] = biological target: Serine/threonine-protein kinase pim-1 (Homo sapiens) (UniProt P11309); conditions: Compound concentration 1000.0 nM
[41] = biological target: Dual specificity testis-specific protein kinase 1 (Homo sapiens) (UniProt Q15569); conditions: Compound concentration 1000.0 nM
Chain of Dual specificity testis-specific protein kinase 1 (Homo sapiens) (Q15569 whole entry, looked up): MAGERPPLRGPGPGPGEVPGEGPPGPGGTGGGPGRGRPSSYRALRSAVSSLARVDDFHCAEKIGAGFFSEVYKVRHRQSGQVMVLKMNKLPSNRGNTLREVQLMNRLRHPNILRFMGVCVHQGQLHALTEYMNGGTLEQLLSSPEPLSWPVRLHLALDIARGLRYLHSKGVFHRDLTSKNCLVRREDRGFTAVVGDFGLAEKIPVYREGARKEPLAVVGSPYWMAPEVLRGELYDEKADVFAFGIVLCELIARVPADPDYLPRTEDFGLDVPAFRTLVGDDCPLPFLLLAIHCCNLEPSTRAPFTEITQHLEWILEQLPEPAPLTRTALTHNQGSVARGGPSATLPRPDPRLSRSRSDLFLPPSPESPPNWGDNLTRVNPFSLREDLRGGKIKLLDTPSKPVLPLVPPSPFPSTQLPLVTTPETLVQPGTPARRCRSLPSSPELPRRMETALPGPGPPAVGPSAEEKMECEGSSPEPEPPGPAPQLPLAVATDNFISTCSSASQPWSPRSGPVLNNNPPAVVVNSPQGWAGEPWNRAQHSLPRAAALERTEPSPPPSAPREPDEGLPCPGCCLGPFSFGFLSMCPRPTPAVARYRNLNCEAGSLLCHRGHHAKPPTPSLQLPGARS

[42] = biological target: Non-receptor tyrosine-protein kinase TYK2 (Homo sapiens) (UniProt P29597); conditions: Compound concentration 1000.0 nM
[43] = biological target: Ankyrin repeat and protein kinase domain-containing protein 1 (Homo sapiens) (UniProt Q8NFD2); conditions: Compound concentration 1000.0 nM
[44] = tested on: Tyrosine-protein kinase ABL1 (Homo sapiens), P00519 [Q252H]; conditions: Compound concentration 1000.0 nM
[45] = biological target: Casein kinase II subunit alpha (Homo sapiens) (UniProt P68400); conditions: Compound concentration 1000.0 nM

CS(=O)(=O)NCC[C@H](NC(=O)c1cncc2c1cnn2-c1ccc(F)cc1)c1ccnc(S(C)(=O)=O)c1 [BI 9307]
inactive: residual activity [1] 100% | residual activity [2] 100% | residual activity [3] 100% | residual activity [4] 100% | residual activity [5] 100% | residual activity [6] 78% | residual activity [7] 100% | residual activity [8] 100% | inhibition [9] 2.46% | residual activity [10] 100% | residual activity [11] 95% | residual activity [12] 100% | residual activity [13] 100% | residual activity [14] 100% | residual activity [15] 100% | residual activity [16] 100% | residual activity [17] 95% | residual activity [18] 91% | residual activity [19] 85% | residual activity [20] 100% | residual activity [21] 100% | residual activity [22] 100% | residual activity [23] 73% | residual activity [24] 100% | residual activity [25] 87% | residual activity [26] 86% | residual activity [27] 92% | residual activity [28] 88% | residual activity [29] 100% | residual activity [30] 94% | residual activity [31] 100% | residual activity [32] 100% | inhibition [33] 7.62% | residual activity [34] 98% | residual activity [35] 88% | residual activity [36] 94% | residual activity [37] 91% | residual activity [38] 100% | residual activity [39] 100% | residual activity [40] 96% | residual activity [41] 100% | residual activity [42] 100% | residual activity [43] 100% | residual activity [44] 100% | residual activity [45] 100%

CS(=O)(=O)c1cc(C2(NC(=O)c3cncc4c3cnn4-c3ccc(F)cc3)CC2)ccn1 [BI 639667]
inactive: residual activity [1] 100% | residual activity [2] 68% | residual activity [3] 79% | residual activity [4] 100% | residual activity [5] 99% | residual activity [6] 100% | residual activity [7] 100% | residual activity [8] 100% | inhibition [9] 3.34% | residual activity [10] 100% | residual activity [11] 100% | residual activity [12] 67% | residual activity [13] 73% | residual activity [14] 100% | residual activity [15] 85% | residual activity [16] 87% | residual activity [17] 100% | residual activity [18] 100% | residual activity [19] 85% | residual activity [20] 76% | residual activity [21] 100% | residual activity [22] 79% | residual activity [23] 100% | residual activity [24] 99% | residual activity [25] 90% | residual activity [26] 100% | residual activity [27] 100% | residual activity [28] 100% | residual activity [29] 97% | residual activity [30] 79% | residual activity [31] 100% | residual activity [32] 94% | inhibition [33] 26.4% | residual activity [34] 81% | residual activity [35] 82% | residual activity [36] 65% | residual activity [37] 90% | residual activity [38] 96% | residual activity [39] 94% | residual activity [40] 100% | residual activity [41] 62% | residual activity [42] 100% | residual activity [43] 96% | residual activity [44] 100% | residual activity [45] 64%
